Consider 49 molecules from ChEMBL document CHEMBL1140020, “Synthesis and biological evaluation of 4'-(6,7-disubstituted-2,4-dihydro-indeno[1,2-c]pyrazol-3-yl)-biphenyl-4-ol as potent Chk1 inhibitors” (Bioorg Med Chem Lett, 2007).

As a reminder, the IC50 is the concentration needed to halve the response being measured. As usually defined, the EC50 is the concentration at which the effect is half-maximal. A low value points to greater potency.

Assay [1] concerns the target T1, Serine/threonine-protein kinase Chk1 (Homo sapiens, UniProt O14757).
T1 sequence (O14757 whole entry): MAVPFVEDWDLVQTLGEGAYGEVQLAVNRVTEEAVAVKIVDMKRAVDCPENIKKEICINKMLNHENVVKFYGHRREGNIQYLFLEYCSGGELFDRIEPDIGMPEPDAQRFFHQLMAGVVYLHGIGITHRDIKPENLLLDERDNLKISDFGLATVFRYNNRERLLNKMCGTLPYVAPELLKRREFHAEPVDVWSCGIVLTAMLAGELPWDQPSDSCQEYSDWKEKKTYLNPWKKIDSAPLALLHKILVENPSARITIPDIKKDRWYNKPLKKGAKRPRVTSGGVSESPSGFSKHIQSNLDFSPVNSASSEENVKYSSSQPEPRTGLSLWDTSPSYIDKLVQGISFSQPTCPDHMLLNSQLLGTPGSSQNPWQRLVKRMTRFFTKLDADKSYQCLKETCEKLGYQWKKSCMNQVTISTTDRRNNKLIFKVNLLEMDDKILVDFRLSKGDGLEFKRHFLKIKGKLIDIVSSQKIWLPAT
The assay is described as follows: Inhibition of Chk1.

A further assay concerns HeLa. The assay is described as follows: Cytotoxicity against HeLa cells by MTS assay. Format: cell-based. The settings on record: Homo sapiens. A general note: Tetrazolium assays rely on reduction of a dye to a coloured formazan, in cell work by metabolically active cells.
Assay [2] can be described thus: Cell cycle arrest in H1299 cells by accumulation at G2/M phase by FACS analysis. It counts as functional, cell-based. The note with it: Homo sapiens, NCI-H1299.
The subject of the next assay is NCI-H1299. The assay is described as follows: Inhibition of doxorubicin-induced cell cycle arrest in H1299 cells by accumulation at G2/M phase by FACS analysis. The settings on record: Homo sapiens. Format: functional, cell-based. On the technique in general: Flow cytometry measures light scatter and fluorescence of single cells or particles in a stream.
The next assay has as its system SW-620. The assay is described as follows: Inhibition of camptothecin-induced cell cycle arrest in SW620 cells by accumulation at S phase by FACS analysis. It counts as functional, cell-based. The note with it: Homo sapiens.

The structures appear in SMILES notation. Active and inactive are the calls of the source. The calls are words filed in the database; no cut-off is given here.

The molecule `COc1cc2c(cc1OC(F)(F)F)-c1[nH]nc(-c3ccc(-c4ccc(O)cc4)cc3)c1C2` yielded an IC50 in assay [1] of 290 nM.

`COc1cc2c(cc1O)-c1[nH]nc(-c3ccc(-c4ccc(O)cc4)cc3)c1C2` had an IC50 in assay [1] of 5 nM.

Consider `COc1cc2c(cc1OC(=O)NCCN1CCOCC1)-c1[nH]nc(-c3ccc(-c4ccc(O)cc4)cc3)c1C2`, for which the concentration for half-maximal inhibition (IC50) in assay [1] was 74 nM.

Regarding `COc1cc2c(cc1OCCCN1CCCCC1)Cc1c-2n[nH]c1-c1ccc(-c2ccc(O)cc2)cc1`, half-maximal inhibition in assay [1] (IC50) was put at 4 nM. The EC50 is 2300 nM with HeLa, above 10000 nM in assay [2] and 400 nM in the assay on NCI-H1299.

As for `COc1cc2c(cc1OCCn1ccnc1)Cc1c-2n[nH]c1-c1ccc(-c2ccc(O)cc2)cc1`, inhibition in assay [1] was half-maximal at 5 nM (IC50).

For `COc1cc2c(cc1OCC(C)CN(C)C)-c1n[nH]c(-c3ccc(-c4ccc(O)cc4)cc3)c1C2` (stereo unspecified), 0.6 nM corresponded to half-maximal inhibition in assay [1] (IC50). Besides, the EC50 in the assay with HeLa came out at 1600 nM.

`COc1cc2c(cc1OC(C)CN(C)C)Cc1c-2n[nH]c1-c1ccc(-c2ccc(O)cc2)cc1` (stereo unspecified) gave a concentration for half-maximal inhibition (IC50) in assay [1] of 2 nM.

`COc1cc2c(cc1OC(=O)NCCN1CCCC1)-c1[nH]nc(-c3ccc(-c4ccc(O)cc4)cc3)c1C2`: 21 nM corresponded to half-maximal inhibition in assay [1] (IC50).

Turning to `COc1cc2c(cc1OC(CO)CO)Cc1c-2n[nH]c1-c1ccc(-c2ccc(O)cc2)cc1`, the IC50 in assay [1] was below 0.1 nM.

With `CCN(CC)CC(CN(CC)CC)Oc1cc2c(cc1OC)Cc1c(-c3ccc(-c4ccc(O)cc4)cc3)n[nH]c1-2`, it took 2 nM to reach half-maximal inhibition in assay [1] (IC50).

In assay [1], `COc1cc2c(cc1OCc1cccnc1)-c1n[nH]c(-c3ccc(-c4ccc(O)cc4)cc3)c1C2` displayed a concentration for half-maximal inhibition (IC50) of 23 nM. Moreover, the values for the 50% effective concentration (EC50) (in the assay with HeLa; in assay [2]; in the assay on NCI-H1299) were 35200 nM, above 50000 nM and 300 nM, respectively.

In turn, `COc1cc2c(cc1OCCCN1CCN(C)CC1)-c1n[nH]c(-c3ccc(-c4ccc(O)cc4)cc3)c1C2` had a concentration for half-maximal inhibition (IC50) in assay [1] of 0.2 nM.

`COc1cc2c(cc1OCC1CCOC1)Cc1c-2n[nH]c1-c1ccc(-c2ccc(O)cc2)cc1` (stereo unspecified) showed an IC50 in assay [1] of 0.8 nM.

Consider `COc1cc2c(cc1OC)-c1n[nH]c(-c3ccc(-c4ccc(O)cc4)cc3)c1C2`, for which the EC50 was above 59300 nM in the assay on HeLa, above 50000 nM in assay [2] and 200 nM with NCI-H1299. Moreover, the outcome in the assay with SW-620 was Active.

Regarding `COc1cc2c(cc1OCCCN1CCN(c3cccc(Cl)c3)CC1)Cc1c-2n[nH]c1-c1ccc(-c2ccc(O)cc2)cc1`, in assay [1], the midpoint of inhibition, the IC50, lay at 8 nM.

`COc1cc2c(cc1OC(C)CN(C)C)-c1n[nH]c(-c3ccc(-c4ccc(O)cc4)cc3)c1C2` (stereo unspecified) gave a concentration for half-maximal inhibition (IC50) in assay [1] of 2 nM.

In assay [1], `COc1cc2c(cc1OCCCN(C)C)Cc1c-2n[nH]c1-c1ccc(-c2ccc(O)cc2)cc1` yielded an IC50 of 0.7 nM. The molecule also came in with an EC50 with HeLa of 800 nM.

Consider `COc1cc2c(cc1OC1CCOCC1)Cc1c(-c3ccc(-c4ccc(O)cc4)cc3)n[nH]c1-2`, for which, in assay [1], the IC50 was determined as 0.2 nM.

For `COc1cc2c(cc1OC[C@H](O)CO)Cc1c-2n[nH]c1-c1ccc(-c2ccc(O)cc2)cc1`, the half-inhibitory concentration (IC50) in assay [1] was 0.1 nM. In addition, the EC50 in the assay with HeLa was 7700 nM; in assay [2], above 50000 nM; in the assay with NCI-H1299, 200 nM.

With `COc1cc2c(cc1OCCCN1CCOCC1)Cc1c-2n[nH]c1-c1ccc(-c2ccc(O)cc2)cc1`, the midpoint of inhibition in assay [1], the IC50, lay at 6 nM. The same molecule had a concentration giving a half-maximal response (EC50) in the assay on HeLa of 4300 nM.

As to `COc1cc2c(cc1OCc1ccccn1)Cc1c(-c3ccc(-c4ccc(O)cc4)cc3)n[nH]c1-2`, half-maximal inhibition in assay [1] (IC50) required 20 nM.

Consider `COc1cc2c(cc1O)Cc1c(-c3ccc(-c4ccc(O)cc4)cc3)n[nH]c1-2`, for which, in assay [1], the IC50 amounted to 1 nM.

In turn, `COc1cc2c(cc1OCCn1ccnc1)-c1n[nH]c(-c3ccc(-c4ccc(O)cc4)cc3)c1C2` came in with an IC50 in assay [1] of 3 nM. In the assay with HeLa, this molecule had a 50% effective concentration (EC50) of 1900 nM.

Turning to `COc1cc2c(cc1OC[C@@H](O)CO)Cc1c-2n[nH]c1-c1ccc(-c2ccc(O)cc2)cc1`, in assay [1], the 50% inhibitory concentration (IC50) was determined as 0.1 nM. This molecule came in with a 50% effective concentration (EC50) in the assay on HeLa of 3500 nM.

Molecule `COc1cc2c(cc1OCC[C@@H]1CCCN1)Cc1c(-c3ccc(-c4ccc(O)cc4)cc3)n[nH]c1-2` returned an IC50 in assay [1] of 2 nM.

`COc1cc2c(cc1OCCN(C)C)-c1[nH]nc(-c3ccc(-c4ccc(O)cc4)cc3)c1C2` gave an IC50 in assay [1] of 0.8 nM.

`COc1cc2c(cc1OCCc1cccnc1)Cc1c(-c3ccc(-c4ccc(O)cc4)cc3)n[nH]c1-2` returned an IC50 in assay [1] of 13 nM.

Regarding `COc1cc2c(cc1OCCC1CCCN1C)-c1[nH]nc(-c3ccc(-c4ccc(O)cc4)cc3)c1C2` (stereo unspecified), it took 0.8 nM to reach half-maximal inhibition in assay [1] (IC50).

In the case of `COc1cc2c(cc1OCCCN1CCN(c3cccc(Cl)c3)CC1)-c1n[nH]c(-c3ccc(-c4ccc(O)cc4)cc3)c1C2`, in assay [1], the midpoint of inhibition, the IC50, lay at 10 nM.

On to `COc1cc2c(cc1OCc1ccccn1)-c1n[nH]c(-c3ccc(-c4ccc(O)cc4)cc3)c1C2`, for which the midpoint of inhibition in assay [1], the IC50, lay at 24 nM. For the same molecule, the EC50 with HeLa is above 59300 nM; in assay [2] it was above 50000 nM; with NCI-H1299, 800 nM.

As to `COc1cc2c(cc1OC[C@H]1CC=CCC1)Cc1c-2n[nH]c1-c1ccc(-c2ccc(O)cc2)cc1`, the 50% inhibitory concentration (IC50) in assay [1] came to 0.7 nM.

`COc1cc2c(cc1OCc1ccncc1)Cc1c-2n[nH]c1-c1ccc(-c2ccc(O)cc2)cc1` displayed a half-maximal inhibitory concentration (IC50) in assay [1] of 8 nM. Besides, the half-maximal effective concentration (EC50) with HeLa was determined as 3200 nM.

Regarding `COc1cc2c(cc1OCCc1ccccn1)Cc1c-2n[nH]c1-c1ccc(-c2ccc(O)cc2)cc1`, half-maximal inhibition in assay [1] (IC50) required 30 nM. In addition, the EC50 with HeLa is 3400 nM; in assay [2], above 10000 nM; with NCI-H1299 it was 600 nM.

Consider `COc1cc2c(cc1OCCN(C)C)Cc1c-2n[nH]c1-c1ccc(-c2ccc(O)cc2)cc1`, for which the half-maximal inhibitory concentration (IC50) in assay [1] was found to be 2 nM.

With `COc1cc2c(cc1OCCN1CCCC1)-c1[nH]nc(-c3ccc(-c4ccc(O)cc4)cc3)c1C2`, in assay [1], half-maximal inhibition (IC50) required 2 nM.

For `COc1cc2c(cc1OCCCN1CCN(c3ccccc3OC)CC1)Cc1c(-c3ccc(-c4ccc(O)cc4)cc3)n[nH]c1-2`, in assay [1], the IC50 is 25 nM.

With `COc1cc2c(cc1OC(=O)NCCN(C)C)-c1[nH]nc(-c3ccc(-c4ccc(O)cc4)cc3)c1C2`, in assay [1], the IC50 is 40 nM.

With `COc1cc2c(cc1CCOCCCc1cccc(C)n1)Cc1c-2n[nH]c1-c1ccc(-c2ccc(O)cc2)cc1`, the IC50 in assay [1] stood at 62 nM. In addition, the half-maximal effective concentration (EC50) was 4100 nM in the assay with HeLa, above 10000 nM in assay [2] and 400 nM in the assay with NCI-H1299.

Consider `CCN1CCCC(Oc2cc3c(cc2OC)Cc2c-3n[nH]c2-c2ccc(-c3ccc(O)cc3)cc2)C1` (stereo unspecified), for which the IC50 in assay [1] amounted to 0.6 nM.

For `COc1cc2c(cc1OCCN1CCCC1)Cc1c(-c3ccc(-c4ccc(O)cc4)cc3)n[nH]c1-2`, the half-inhibitory concentration (IC50) in assay [1] is 0.8 nM.

Molecule `COc1cc2c(cc1OC1CCOC1)Cc1c-2n[nH]c1-c1ccc(-c2ccc(O)cc2)cc1` (stereo unspecified) displayed a concentration for half-maximal inhibition (IC50) in assay [1] of 0.4 nM. The molecule also registered an EC50 in the assay on HeLa of 49000 nM.

For the molecule `COc1cc2c(cc1OCc1cccnc1)Cc1c-2n[nH]c1-c1ccc(-c2ccc(O)cc2)cc1`, half-maximal inhibition in assay [1] (IC50) was put at 18 nM. The EC50 with HeLa is above 59300 nM.

`COc1cc2c(cc1OC(=O)NCc1ccccn1)-c1[nH]nc(-c3ccc(-c4ccc(O)cc4)cc3)c1C2` showed an IC50 in assay [1] of 48 nM.

In assay [1], `CCc1ccc(CCOc2cc3c(cc2OC)-c2n[nH]c(-c4ccc(-c5ccc(O)cc5)cc4)c2C3)nc1` registered an IC50 of 23 nM. Besides, the EC50 is 29400 nM in the assay with HeLa, above 10000 nM in assay [2] and 500 nM in the assay with NCI-H1299.

In assay [1], `COc1cc2c(cc1OCCN1CCCCC1)Cc1c-2n[nH]c1-c1ccc(-c2ccc(O)cc2)cc1` showed a concentration for half-maximal inhibition (IC50) of 1 nM.

In assay [1], `COc1cc2c(cc1OCCN1CCOCC1)-c1n[nH]c(-c3ccc(-c4ccc(O)cc4)cc3)c1C2` registered a half-inhibitory concentration (IC50) of 5 nM.

For the molecule `COc1cc2c(cc1OCc1ccncc1)-c1[nH]nc(-c3ccc(-c4ccc(O)cc4)cc3)c1C2`, the half-maximal inhibitory concentration (IC50) in assay [1] was 36 nM.

Take `COc1cc2c(cc1OCCc1ccncc1)Cc1c-2n[nH]c1-c1ccc(-c2ccc(O)cc2)cc1`: in assay [1], half-maximal inhibition (IC50) required 5 nM.

In assay [1], `COc1cc2c(cc1OCCN1CCOCC1)Cc1c(-c3ccc(-c4ccc(O)cc4)cc3)n[nH]c1-2` yielded a concentration for half-maximal inhibition (IC50) of 2 nM.
